{"source": "patent US20070264355A1", "about": "“BINARY COMPOSITIONS AND METHODS FOR STERILIZATION” (Binary, LLC, priority 2005, published 2007)", "key": {"Bacillus subtilis spores": {"tested_on": "Bacillus subtilis spores", "test": "Microbicidal activity of commonly used antiseptics against Bacillus subtilis spores", "format": "cell-based", "settings": "inoculum 1865000 CFU", "protocol": "(§1) The performance of commonly used antiseptics was tested against Bacillus subtilis and Staphylococcus aureus, following the general procedure of Example 1, to assess the improvement provided by the binary system over these compounds.\nAfter 60 minutes of exposure to the organisms, the individual antiseptics, indicated in Table 15 and Table 16, were neutralized using the corresponding neutralizing solutions prepared as listed below in Materials. Chlorhexidine and IPA were neutralized with 500 microliters of a solution containing 3% Saponin, 3% Tween-80, 0.3% lecithin, and 0.1% histidine. Povidone Iodine was neutralized with 500 microliters of thiosulfate solution (2.4%)."}, "Staphylococcus aureus": {"tested_on": "Staphylococcus aureus", "test": "Microbicidal activity of commonly used antiseptics against Staphylococcus aureus", "format": "cell-based", "settings": "inoculum 1475000 CFU", "protocol": "as §1\n[…] Chlorhexidine and IPA were neutralized with 500 microliters of a solution containing 3% Saponin, 3% Tween-80, 0.3% lecithin, and 0.1% histidine. Povidone Iodine was neutralized with 500 microliters of thiosulfate solution (2.4%)."}, "[1]": {"settings": "two percent, compared to 70% isopropyl alcohol and 10% povidone-iodine; cited from earlier work"}}, "data": [{"smiles": "[H]/N=C(\\N/C(=N/[H])NCCCCCCNC(=N)NC(=N)Nc1ccc(Cl)cc1)Nc1ccc(Cl)cc1", "note": "[Chlorhexidine, Chlorhexidine Gluconate]", "values": [{"measurement": "Log 10 (CFU + 1) Survivors", "setting": "Bacillus subtilis spores; Chlorhexidine 0.020% 60 min", "value": 5.8}, {"measurement": "Log Reduction", "setting": "Bacillus subtilis spores; Chlorhexidine 0.020% 60 min", "value": 0.4}, {"measurement": "Total Viability (CFU)", "setting": "Bacillus subtilis spores; Chlorhexidine 0.020% 60 min", "value": 672000, "unit": "CFU"}, {"measurement": "Log 10 (CFU + 1) Survivors", "setting": "Bacillus subtilis spores; Chlorhexidine 0.200% 60 min", "value": 4.3}, {"measurement": "Log Reduction", "setting": "Bacillus subtilis spores; Chlorhexidine 0.200% 60 min", "value": 2.0}, {"measurement": "Total Viability (CFU)", "setting": "Bacillus subtilis spores; Chlorhexidine 0.200% 60 min", "value": 20020, "unit": "CFU"}, {"measurement": "Log 10 (CFU + 1) Survivors", "setting": "Bacillus subtilis spores; Chlorhexidine 2% 60 min", "value": 5.0}, {"measurement": "Log Reduction", "setting": "Bacillus subtilis spores; Chlorhexidine 2% 60 min", "value": 1.3}, {"measurement": "Total Viability (CFU)", "setting": "Bacillus subtilis spores; Chlorhexidine 2% 60 min", "value": 102200, "unit": "CFU"}, {"measurement": "Log 10 (CFU + 1) Survivors", "setting": "Bacillus subtilis spores; Chlorhexidine 20% 60 min", "value": 5.5}, {"measurement": "Log Reduction", "setting": "Bacillus subtilis spores; Chlorhexidine 20% 60 min", "value": 0.7}, {"measurement": "Total Viability (CFU)", "setting": "Bacillus subtilis spores; Chlorhexidine 20% 60 min", "value": 350000, "unit": "CFU"}, {"measurement": "Log 10 (CFU + 1) Survivors", "setting": "Staphylococcus aureus; Chlorhexidine 0.020% 15 min", "value": 0.0}, {"measurement": "Log Reduction", "setting": "Staphylococcus aureus; Chlorhexidine 0.020% 15 min", "value": 6.2}, {"measurement": "Total Viability (CFU)", "setting": "Staphylococcus aureus; Chlorhexidine 0.020% 15 min", "value": 0, "unit": "CFU"}, {"measurement": "Log 10 (CFU + 1) Survivors", "setting": "Staphylococcus aureus; Chlorhexidine 0.200% 15 min", "value": 0.0}, {"measurement": "Log Reduction", "setting": "Staphylococcus aureus; Chlorhexidine 0.200% 15 min", "value": 6.2}, {"measurement": "Total Viability (CFU)", "setting": "Staphylococcus aureus; Chlorhexidine 0.200% 15 min", "value": 0, "unit": "CFU"}, {"measurement": "Log 10 (CFU + 1) Survivors", "setting": "Staphylococcus aureus; Chlorhexidine 2% 15 min", "value": 0.0}, {"measurement": "Log Reduction", "setting": "Staphylococcus aureus; Chlorhexidine 2% 15 min", "value": 6.2}, {"measurement": "Total Viability (CFU)", "setting": "Staphylococcus aureus; Chlorhexidine 2% 15 min", "value": 0, "unit": "CFU"}, {"measurement": "Log 10 (CFU + 1) Survivors", "setting": "Staphylococcus aureus; Chlorhexidine 20% 15 min", "value": 0.0}, {"measurement": "Log Reduction", "setting": "Staphylococcus aureus; Chlorhexidine 20% 15 min", "value": 6.2}, {"measurement": "Total Viability (CFU)", "setting": "Staphylococcus aureus; Chlorhexidine 20% 15 min", "value": 0, "unit": "CFU"}, {"measurement": "prevention of catheter-related infections", "setting": "[1]", "value": "superior"}]}]}
